Assay results reported in patent US9732061B2, “Cinnoline derivatives useful as CB-1 receptor inverse agonists” (Janssen Pharmaceutica NV, priority 2015, dated 2017).

Tests used:
[1] = target: Human CB1R (Cannabanoid receptor 1) (Homo sapiens (Human), UniProt P21554); experiment: CB-1 in vitro cAMP (HTRF) assay; assay type: cell-based; details: HEK-293 cells stably transfected with human CB1R, 250 nM Forskolin, mean where tested more than once
Excerpt: (§1) CB1 and CB2 receptors are Gi-coupled GPCR. Activation of CB1 and CB2 receptors results in a decrease in cAMP production. An inverse agonist of the CB1 or CB2 receptor results in the opposite effect, an increase of cAMP production. The principle of this assay is based on HTRF® technology (Homogeneous Time-Resolved Fluorescence). The method is a competitive immunoassay between native cAMP produced by cells and the cAMP labeled with the fluorophore d2. The tracer binding is quantified by a Mab anti-cAMP labeled with Eu3+TBP-NHS Cryptate (supplied as part of the assay kit). The specific signal (i.e. energy transfer) is inversely proportional to the concentration of cAMP in the standard or sample.
(§2) Biological Example 1: CB-1 and CB-2 In Vitro Assay
(§3) Human CB1R (Cannabanoid receptor 1) was stably transfected in HEK-293 cells (DiscoveRx, cat: 93-0200C1). Human CB2R (Cannabanoid receptor 2) was stably transfected in HEK-293 cells (DiscoveRx, cat: 93-0201C1). Cell cultures were maintained in media: DMEM (Invitrogen Cat#12430-054) supplemented with 10% HI FBS (Invitrogen Cat#16140-071), 1% L-glutamine (Invitrogen Cat#25030-081), 0.2 mg/ml Hygromycin B (Invitrogen Cat#10687-010), 600 μg/mL G418 (Invitrogen Cat#10131-035), and 1×Penn/Strep (Invitrogen 15140-122). After cell expansion, aliquots were cryo-stored in media containing 5% DMSO (Pierce Cat#20684).
(§4) One day prior to experiments media was warmed to 37° C. and the cryo-stored cells were thawed in a 37° C. water bath. The cells were then added to media (10× volume) and the mixture was centrifugated at 1000 RPM for 5 min. The supernate was removed and the cells were re-suspended in media. A sample of the cell suspension was evaluated on a Cedex XS automated cell counter (Innovatis Systems) to determine viable cells/ml. Additional media was added to the cells to achieve a final cell density of 4E5 cells/mL. The cells were then plated into 384 well PDL white solid bottom plates (Greiner, Cat#781945) at 20 μL per well using a Multidrop (Thermo Scientific). Cells were removed from Row P (location of cAMP standards). Two columns of cells were plated into a clear bottom 384 well PDL coated plate (Greiner, Cat#781944) to view confluence the day of the assay. The cell plates were lidded and stored for 15 minutes in a hood, then transferred to an incubator (37° C., 5% CO2, 95% humidity) overnight.
(§5) DMSO was added to all wells of 384 well V bottom polystyrene plate (Greiner, Cat#781280) except to columns 1 and 13, rows O and P and wells M13-M23 and N13-N23. Test compounds (60 μL, 10 mM) were added to Column 1 and 13 (A1 through N1 and A13 through L13). Test compounds were serially diluted 1/3 by transferring and mixing 20 μl sample with 40 μL DMSO.
(§6) DMSO (40 μL) was added to wells of 384 well V bottom polystyrene plate: O2 through O11, M14 through M23, N14 through N23, and O14 through O23. AM630 (also known as [6-iodo-2-methyl-1-[2-(4-morpholinyl)ethyl]-1H-indol-3-yl](4-methoxyphenyl)-methanone, Cayman Chemical, Cat#10006974) (60 μL, 10 mM) was added to O1; and 1-(2,4-dichlorophenyl)-7-[(4-fluorophenyl)methylene]-4,5,6,7-tetrahydro-N-1-piperidinyl-1H-indazole-3-carboxamide (60 μL, 10 mM) was added to N13. The control was serially diluted 1/3 by transferring and mixing 20 μl sample with 40 μL DMSO. This process resulted 11 doses per control, 10 mM to […].
(§7) Cells plated the day prior to the assay in clear bottom plates were viewed on an inverse microscope to ensure confluency in the range of 60-75%. […]

[2] = target: Human CB2R (Cannabanoid receptor 2) (Homo sapiens (Human), UniProt P34972); experiment: CB-2 in vitro cAMP (HTRF) assay; assay type: cell-based; details: HEK-293 cells stably transfected with human CB2R, 250 nM Forskolin, mean where tested more than once
Chain of Human CB2R (Cannabanoid receptor 2) (P34972 whole entry): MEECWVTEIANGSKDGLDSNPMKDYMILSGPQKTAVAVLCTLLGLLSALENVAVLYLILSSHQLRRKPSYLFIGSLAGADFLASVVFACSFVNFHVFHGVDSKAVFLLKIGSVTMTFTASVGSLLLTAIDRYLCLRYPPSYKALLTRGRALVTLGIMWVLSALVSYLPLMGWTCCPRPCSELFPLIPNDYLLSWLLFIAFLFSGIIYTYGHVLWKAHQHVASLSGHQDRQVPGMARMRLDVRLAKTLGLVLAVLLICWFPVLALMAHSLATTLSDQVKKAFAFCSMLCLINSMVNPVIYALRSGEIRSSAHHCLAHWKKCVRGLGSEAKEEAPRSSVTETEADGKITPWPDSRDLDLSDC
Excerpt: as §1, §2, §3, §4, §5, §6, §7

Chain of Human CB1R (Cannabanoid receptor 1) (P21554 whole entry): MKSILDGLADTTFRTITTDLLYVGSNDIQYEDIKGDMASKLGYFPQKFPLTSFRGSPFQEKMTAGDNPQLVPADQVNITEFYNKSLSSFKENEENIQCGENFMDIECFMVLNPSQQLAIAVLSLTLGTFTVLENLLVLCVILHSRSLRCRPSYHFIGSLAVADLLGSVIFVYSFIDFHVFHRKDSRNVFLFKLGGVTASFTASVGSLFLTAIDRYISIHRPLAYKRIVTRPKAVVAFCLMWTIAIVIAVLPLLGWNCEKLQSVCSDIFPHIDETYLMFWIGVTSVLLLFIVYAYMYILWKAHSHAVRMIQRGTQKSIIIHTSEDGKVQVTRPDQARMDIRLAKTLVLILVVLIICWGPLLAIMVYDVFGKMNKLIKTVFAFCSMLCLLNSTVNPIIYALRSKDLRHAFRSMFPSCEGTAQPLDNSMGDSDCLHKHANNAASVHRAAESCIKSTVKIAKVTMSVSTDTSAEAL

Row | Compound | EC50 [1] [nM] | EC50 [2] [µM]
1 | Clc1ccc(C(c2ccc(Cl)cc2)c2ccc3nncc(NC4CCN(Cc5ccccc5)C4)c3c2)cc1 (stereo not drawn) [Compound 28, N-(1-benzylpyrrolidin-3-yl)-6-(bis(4-chlorophenyl)methyl)cinnolin-4-amine] | 1690 | > 10
2 | OC(c1ccc(Cl)cc1)(c1ccc(Cl)cc1)c1ccc2nncc(NCc3cccc(C(F)(F)F)c3)c2c1 [Compound 6, bis(4-chlorophenyl)(4-((3-(trifluoromethyl)benzyl)amino)cinnolin-6-yl)methanol] | 254 | > 10
3 | O=C(O)c1ccc(CN2CCC(Nc3cnnc4ccc(C(c5ccc(Cl)cc5)c5ccc(Cl)cc5)cc34)CC2)cc1 [Compound 13, 4-((4-(6-(bis(4-chlorophenyl)methyl)cinnolin-4-ylamino)piperidin-1-yl)methyl)benzoic acid] | 1440 | > 10
4 | OC(c1ccc(Cl)cc1)(c1ccc(Cl)cc1)c1ccc2nncc(NCc3ccc(C(F)(F)F)cc3)c2c1 [Compound 7, bis(4-chlorophenyl)(4-((4-(trifluoromethyl)benzyl)amino)cinnolin-6-yl)methanol] | 219 | > 10
5 | O=C(O)c1ccc(S(=O)(=O)N2CCC(Nc3cnnc4ccc(C(c5ccc(Cl)cc5)c5ccc(Cl)cc5)cc34)CC2)s1 [Compound 16, 5-(4-(6-(bis(4-chlorophenyl)methyl)cinnolin-4-ylamino)piperidin-1-ylsulfonyl)thiophene-2-carboxylic acid] | 262 | 2.15
6 | O=C(O)c1ccc(CN2CCC(Nc3cnnc4ccc(C(c5ccc(Cl)cc5)c5ccc(Cl)cc5)cc34)CC2)s1 [Compound 15, 5-((4-(6-(bis(4-chlorophenyl)methyl)cinnolin-4-ylamino)piperidin-1-yl)methyl)thiophene-2-carboxylic acid] | 399 | 3.69
7 | O=C(O)c1cccc(CCN2CCC(Nc3cnnc4ccc(C(c5ccc(Cl)cc5)c5ccc(Cl)cc5)cc34)CC2)c1 [Compound 23, 3-[2-[4-([6-[bis(4-chlorophenyl)methyl]cinnolin-4-yl]amino)piperidin-1-yl]ethyl]benzoic acid] | 5090 | > 10
8 | O=C(O)c1csc(S(=O)(=O)N2CCC(Nc3cnnc4ccc(C(c5ccc(Cl)cc5)c5ccc(Cl)cc5)cc34)CC2)c1 [Compound 32, 5-[4-([6-[bis(4-chlorophenyl)methyl]cinnolin-4-yl]amino)piperidine-1-sulfonyl]thiophene-3-carboxylic acid] | 40 | 1.98
9 | O=S(=O)(c1ccccc1)N1CCC(Nc2cnnc3ccc(C(c4ccc(Cl)cc4)c4ccc(Cl)cc4)cc23)C1 (stereo not drawn) [Compound 27, 6-(bis(4-chlorophenyl)methyl)-N-(1-(phenylsulfonyl)pyrrolidin-3-yl)cinnolin-4-amine] | 272 | 0.849
10 | O=S(=O)(N1CCN(c2cnnc3ccc(C(c4ccc(Cl)cc4)c4ccc(Cl)cc4)cc23)CC1)C(F)(F)F [Compound 24, 6-[bis(4-chlorophenyl)methyl]-4-[4-(trifluoromethane)sulfonylpiperazin-1-yl]cinnoline] | 261 | > 10
11 | O=S(=O)(N1CCC(Nc2cnnc3ccc(C(c4ccc(F)cc4)c4ccc(F)cc4)cc23)CC1)C(F)(F)F [Compound 33, 6-(bis(4-fluorophenyl)methyl)-N-(1-(trifluoromethylsulfonyl)piperidin-4-yl)cinnolin-4-amine] | 79 | 4.7
12 | O=C(O)c1ccc(N2CCC(Nc3cnnc4ccc(C(c5ccc(Cl)cc5)c5ccc(Cl)cc5)cc34)CC2)cc1 [Compound 17, 4-(4-(6-(bis(4-chlorophenyl)methyl)cinnolin-4-ylamino)piperidin-1-yl)benzoic acid] | 10100 | 8.1
13 | O=C(O)c1cccc(CCNc2cnnc3ccc(C(c4ccc(Cl)cc4)c4ccc(Cl)cc4)cc23)c1 [Compound 38, 3-(2-(6-(bis(4-chlorophenyl)methyl)cinnolin-4-ylamino)ethyl)benzoic acid] | 4500 | 3.98
14 | Clc1ccc(C(c2ccc(Cl)cc2)c2ccc3nncc(N4CCN(Cc5ccccc5)CC4)c3c2)cc1 [Compound 22, 4-(4-benzylpiperazin-1-yl)-6-(bis(4-chlorophenyl)methyl)cinnoline] | 6540 | > 10
15 | O=S(=O)(N1CCC(Nc2cnnc3ccc(C(c4ccc(Cl)cc4)c4ccc(Cl)cc4)cc23)C1)C(F)(F)F (stereo not drawn) [Compound 26, 6-(bis(4-chlorophenyl)methyl)-N-(1-(trifluoromethylsulfonyl)pyrrolidin-3-yl)cinnolin-4-amine] | 95 | 1.93
16 | O=S(=O)(N1CCC(Nc2cnnc3ccc(C(c4ccc(Cl)cc4)c4nccs4)cc23)CC1)C(F)(F)F (stereo not drawn) [Compound 36, 6-((4-chlorophenyl)(thiazol-2-yl)methyl)-N-(1-(trifluoromethylsulfonyl)piperidin-4-yl)cinnolin-4-amine] | 28 | 0.665
17 | CC(C)(C)OC(=O)N1CCC(Nc2cnnc3ccc(C(O)(c4ccc(Cl)cc4)c4ccc(Cl)cc4)cc23)CC1 [Compound 2, tert-butyl 4-((6-(bis(4-chlorophenyl)(hydroxy)methyl)cinnolin-4-yl)amino)piperidine-1-carboxylate] | 200 | > 10
18 | O=C(O)c1ccc(CCNc2cnnc3ccc(C(c4ccc(Cl)cc4)c4ccc(Cl)cc4)cc23)cc1 [Compound 37, 4-(2-(6-(bis(4-chlorophenyl)methyl)cinnolin-4-ylamino)ethyl)benzoic acid] | 5400 | 2.79
19 | COc1ccc(CNc2cnnc3ccc(C(c4ccc(Cl)cc4)c4ccc(Cl)cc4)cc23)cc1 [Compound 20, 6-(bis(4-chlorophenyl)methyl)-N-(4-methoxybenzyl)cinnolin-4-amine] | 196 | 3.58
20 | FC(F)(F)c1cccc(CNc2cnnc3ccc(C(c4ccc(Cl)cc4)c4ccc(Cl)cc4)cc23)c1 [Compound 8, 6-(bis(4-chlorophenyl)methyl)-N-(3-(trifluoromethyl)benzyl)cinnolin-4-amine] | 12 | > 10
21 | O=C(O)c1ccc(S(=O)(=O)N2CCC(Nc3cnnc4ccc(C(c5ccc(Cl)cc5)c5ccc(Cl)cc5)cc34)CC2)cc1 [Compound 10, 4-(4-(6-(bis(4-chlorophenyl)methyl)cinnolin-4-ylamino)piperidin-1-ylsulfonyl)benzoic acid] | 302 | 1.48
22 | O=C(O)c1ccccc1S(=O)(=O)N1CCC(Nc2cnnc3ccc(C(c4ccc(Cl)cc4)c4ccc(Cl)cc4)cc23)CC1 [Compound 19, 2-(4-(6-(bis(4-chlorophenyl)methyl)cinnolin-4-ylamino)piperidin-1-ylsulfonyl)benzoic acid] | 5940 | > 10
23 | Clc1ccc(C(c2ccc(Cl)cc2)c2ccc3nncc(NCCc4ccccc4)c3c2)cc1 [Compound 25, 6-(bis(4-chlorophenyl)methyl)-N-phenethylcinnolin-4-amine] | 35 | 2.46
24 | O=S(=O)(N1CCC(Nc2cnnc3ccc(C(c4ccc(F)cc4)c4ccc(Cl)cc4)cc23)CC1)C(F)(F)F (stereo not drawn) [Compound 34, 6-((4-chlorophenyl)(4-fluorophenyl)methyl)-N-(1-(trifluoromethylsulfonyl)piperidin-4-yl)cinnolin-4-amine] | 30 | > 10
